Results: US20120295907A1, “INSECTICIDAL COMPOUNDS” (SYNGENTA CROP PROTECTION, LLC, priority 2009, published 2012)

Tests used:
Assay type in all cases: in vivo
Spodoptera littoralis = Spodoptera littoralis (Egyptian Cotton Leafworm) cotton leaf disc spray test; settings: foliar, 72 h, 200 ppm spray on cotton leaf discs, L1 larvae, mortality, feeding behavior, growth regulation 3 DAT
Heliothis virescens = Heliothis virescens (Tobacco Budworm) egg test on artificial diet; settings: 96 h, 200 ppm (concentration in well 18 ppm), eggs 0-24 h old on artificial diet, 4 days, egg mortality, larval mortality, growth regulation
Plutella xylostella = Plutella xylostella (Diamond Back Moth) artificial diet MTP test; settings: 144 h, 200 ppm (concentration in well 18 ppm), L2 larvae, 6 days, larval mortality, growth regulation
Diabrotica balteata = Diabrotica balteata (Corn Root Worm) artificial diet MTP test; settings: 120 h, 200 ppm (concentration in well 18 ppm), L2 larvae, 5 days, larval mortality, growth regulation
Thrips tabaci = Thrips tabaci (Onion Thrips) sunflower leaf disc spray test; settings: foliar, 168 h, 200 ppm spray on sunflower leaf discs, population of mixed ages, 7 days, mortality
Tetranychus urticae = Tetranychus urticae (Two-Spotted Spider Mite) bean leaf disc spray test; settings: foliar, 192 h, 200 ppm spray on bean leaf discs, mite populations of mixed ages, 8 days, egg, larval and adult mortality, read-out: control of Tetranychus urticae

Measured: pest or weed control at 200 ppm

CCc1cc(C(F)(C(F)(F)F)C(F)(F)C(F)(F)F)cc(C)c1NC(=O)c1cccc(NC(=O)c2cccc(Cl)c2)c1OC (stereo not shown) [A8]
not listed: Tetranychus urticae
≥ 80%: all other assays above

CCc1cc(C(F)(C(F)(F)F)C(F)(F)C(F)(F)F)cc(C)c1NC(=O)c1cccc(NC(=O)c2ccccc2Cl)c1OC (stereo not shown) [A9]
not listed: Tetranychus urticae
≥ 80%: all other assays above

CCc1cc(C(F)(C(F)(F)F)C(F)(F)C(F)(F)F)cc(C)c1NC(=O)c1cccc(NC(=O)c2ccccc2)c1OC (stereo not shown) [A19]
not listed: Tetranychus urticae
≥ 80%: all other assays above

CCc1cc(C(F)(C(F)(F)F)C(F)(F)C(F)(F)F)cc(C)c1NC(=O)c1cccc(NC(=O)c2cccc(F)c2F)c1OC (stereo not shown) [A20]
not listed: Tetranychus urticae
≥ 80%: all other assays above

COc1c(NC(=O)c2ccc([N+](=O)[O-])cc2Cl)cccc1C(=O)Nc1c(Cl)cc(C(F)(C(F)(F)F)C(F)(F)C(F)(F)F)cc1Br (stereo not shown) [B11]
≥ 80%: Spodoptera littoralis | Heliothis virescens | Plutella xylostella | Tetranychus urticae

COc1c(NC(=O)c2ccc(OC(F)(F)F)cc2)cccc1C(=O)Nc1c(Cl)cc(C(F)(C(F)(F)F)C(F)(F)C(F)(F)F)cc1Br (stereo not shown) [B13]
≥ 80%: Spodoptera littoralis | Heliothis virescens | Plutella xylostella | Tetranychus urticae

COc1c(NC(=O)c2ccccc2C(F)(F)F)cccc1C(=O)Nc1c(Cl)cc(C(F)(C(F)(F)F)C(F)(F)C(F)(F)F)cc1Br (stereo not shown) [B20]
not listed: Tetranychus urticae
≥ 80%: all other assays above

COc1c(NC(=O)c2ccc(F)cc2F)cccc1C(=O)Nc1c(Cl)cc(C(F)(C(F)(F)F)C(F)(F)C(F)(F)F)cc1Br (stereo not shown) [B23]
≥ 80%: Spodoptera littoralis | Heliothis virescens | Plutella xylostella | Tetranychus urticae

COc1c(NC(=O)c2ccc(C(C)C)cc2)cccc1C(=O)Nc1c(Cl)cc(C(F)(C(F)(F)F)C(F)(F)C(F)(F)F)cc1Br (stereo not shown) [B25]
not listed: Tetranychus urticae
≥ 80%: all other assays above

COc1c(NC(=O)c2cc(Cl)ccc2Cl)cccc1C(=O)Nc1c(Cl)cc(C(F)(C(F)(F)F)C(F)(F)C(F)(F)F)cc1Br (stereo not shown) [B27]
not listed: Tetranychus urticae
≥ 80%: all other assays above

COc1c(NC(=O)c2ccc(Br)o2)cccc1C(=O)Nc1c(Cl)cc(C(F)(C(F)(F)F)C(F)(F)C(F)(F)F)cc1Br (stereo not shown) [B52]
not listed: Tetranychus urticae
≥ 80%: all other assays above

COc1c(NC(=O)c2cc(C)oc2C)cccc1C(=O)Nc1c(Cl)cc(C(F)(C(F)(F)F)C(F)(F)C(F)(F)F)cc1Br (stereo not shown) [B58]
not listed: Tetranychus urticae
≥ 80%: all other assays above

COc1c(NC(=O)c2cccc(C)c2[N+](=O)[O-])cccc1C(=O)Nc1c(Cl)cc(C(F)(C(F)(F)F)C(F)(F)C(F)(F)F)cc1Br (stereo not shown) [B87]
not listed: Tetranychus urticae
≥ 80%: all other assays above

COc1c(NC(=O)c2sc(C(F)(F)F)nc2C)cccc1C(=O)Nc1c(Cl)cc(C(F)(C(F)(F)F)C(F)(F)C(F)(F)F)cc1Br (stereo not shown) [B104]
≥ 80%: Spodoptera littoralis | Heliothis virescens | Plutella xylostella | Tetranychus urticae

COc1c(NC(=O)c2cc(C(C)(C)C)nn2C)cccc1C(=O)Nc1c(Cl)cc(C(F)(C(F)(F)F)C(F)(F)C(F)(F)F)cc1Br (stereo not shown) [B112]
not listed: Tetranychus urticae
≥ 80%: all other assays above

COc1c(NC(=O)c2ccnc(C(F)(F)F)c2Cl)cccc1C(=O)Nc1c(Cl)cc(C(F)(C(F)(F)F)C(F)(F)C(F)(F)F)cc1Br (stereo not shown) [B115]
not listed: Tetranychus urticae
≥ 80%: all other assays above

COc1c(NC(=O)c2ccc(Br)cc2C)cccc1C(=O)Nc1c(Cl)cc(C(F)(C(F)(F)F)C(F)(F)C(F)(F)F)cc1Br (stereo not shown) [B138]
≥ 80%: Spodoptera littoralis | Heliothis virescens | Plutella xylostella | Tetranychus urticae

COc1c(NC(=O)c2ccc(Br)c(OC)c2C)cccc1C(=O)Nc1c(Cl)cc(C(F)(C(F)(F)F)C(F)(F)C(F)(F)F)cc1Br (stereo not shown) [B139]
≥ 80%: Spodoptera littoralis | Heliothis virescens | Plutella xylostella | Tetranychus urticae

COc1cc(C(=O)Nc2cccc(C(=O)Nc3c(Cl)cc(C(F)(C(F)(F)F)C(F)(F)C(F)(F)F)cc3Br)c2OC)cc(Cl)n1 (stereo not shown) [B146]
not listed: Tetranychus urticae
≥ 80%: all other assays above

COc1c(NC(=O)c2ccc([N+](=O)[O-])c(C)c2I)cccc1C(=O)Nc1c(Cl)cc(C(F)(C(F)(F)F)C(F)(F)C(F)(F)F)cc1Br (stereo not shown) [B161]
≥ 80%: Heliothis virescens | Plutella xylostella | Diabrotica balteata | Thrips tabaci

COc1c(NC(=O)c2ccc([N+](=O)[O-])c(C)c2Br)cccc1C(=O)Nc1c(Cl)cc(C(F)(C(F)(F)F)C(F)(F)C(F)(F)F)cc1Br (stereo not shown) [B162]
≥ 80%: Heliothis virescens | Plutella xylostella | Diabrotica balteata | Thrips tabaci

COc1c(NC(=O)c2ccc([N+](=O)[O-])c(C)c2Cl)cccc1C(=O)Nc1c(Cl)cc(C(F)(C(F)(F)F)C(F)(F)C(F)(F)F)cc1Br (stereo not shown) [B163]
≥ 80%: Heliothis virescens | Plutella xylostella | Diabrotica balteata | Thrips tabaci

COc1c(NC(=O)c2ccc(C(F)(F)F)cc2F)cccc1C(=O)Nc1c(Cl)cc(C(F)(C(F)(F)F)C(F)(F)C(F)(F)F)cc1Br (stereo not shown) [B167]
≥ 80%: Spodoptera littoralis | Heliothis virescens | Diabrotica balteata | Thrips tabaci

COc1c(NC(=O)c2ccc([N+](=O)[O-])cc2C)cccc1C(=O)Nc1c(Cl)cc(C(F)(C(F)(F)F)C(F)(F)C(F)(F)F)cc1Br (stereo not shown) [B196]
≥ 80%: Spodoptera littoralis | Plutella xylostella | Tetranychus urticae

COc1c(NC(=O)c2ccccc2F)cccc1C(=O)Nc1c(Cl)cc(C(F)(C(F)(F)F)C(F)(F)C(F)(F)F)cc1Cl (stereo not shown) [C3]
not listed: Tetranychus urticae
≥ 80%: all other assays above

COc1c(NC(=O)c2ccccc2Cl)cccc1C(=O)Nc1c(Cl)cc(C(F)(C(F)(F)F)C(F)(F)F)cc1Cl [E3]
≥ 80%: Spodoptera littoralis | Heliothis virescens | Diabrotica balteata | Thrips tabaci

COc1c(NC(=O)c2ccccc2C(F)(F)F)cccc1C(=O)Nc1c(Cl)cc(C(F)(C(F)(F)F)C(F)(F)F)cc1Cl [E18]
not listed: Tetranychus urticae
≥ 80%: all other assays above

COc1c(NC(=O)c2ccc(F)cc2F)cccc1C(=O)Nc1c(Cl)cc(C(F)(C(F)(F)F)C(F)(F)F)cc1Cl [E22]
not listed: Tetranychus urticae
≥ 80%: all other assays above

COc1c(NC(=O)c2ccccc2Cl)cccc1C(=O)Nc1c(C)cc(C(F)(C(F)(F)F)C(F)(F)C(F)(F)F)cc1C (stereo not shown) [F3]
not listed: Tetranychus urticae
≥ 80%: all other assays above

COc1c(NC(=O)c2cccc(F)c2F)cccc1C(=O)Nc1c(C)cc(C(F)(C(F)(F)F)C(F)(F)C(F)(F)F)cc1C (stereo not shown) [F8]
not listed: Tetranychus urticae
≥ 80%: all other assays above

COc1c(NC(=O)c2cccc(F)c2)cccc1C(=O)Nc1c(C)cc(C(F)(C(F)(F)F)C(F)(F)C(F)(F)F)cc1C (stereo not shown) [F20]
not listed: Tetranychus urticae
≥ 80%: all other assays above
